As usually defined, the pIC50 is −log10 of the IC50, conventionally taken in molar units.

The values below come from US11746098B2, “Proteasome activity enhancing compounds” (Proteostasis Therapeutics, Inc., priority 2018, dated 2023).

pIC50: −log10 of the molar value. A value given as a limit tells only on which side of the number the result lay.

The experiment deals with USP14 (Homo sapiens, UniProt P54578). Description: USP14 Inhibition Assay. It counts as biochemical. The settings on record: average value from a minimum of two experimental determinations, read-out: IC50 Category. From the text:
The activity of the compound described herein to inhibit USP14 can be measured using previously described methodology [B. H. Lee et al. Nature 2010, 467 (9), 179, the contents of which are expressly incorporated by reference herein].
Example 6: USP14 Inhibition Assay

Consider `COc1cc(NS(=O)(=O)c2ccc(-n3c(C)cc(C(=O)CN4CCCCC4)c3C)cc2)nc(OC)n1` [Compound 1, N-(2,6-Dimethoxypyrimidin-4-yl)-4-(2,5-dimethyl-3-(2-(piperidin-1-yl)acetyl)-1H-pyrrol-1-yl)benzenesulfonamide], for which the pIC50 is under 5.30.

On to `COc1cc(NS(=O)(=O)c2ccc(-n3c(C)cc(C(=O)CN4CCC(O)CC4)c3C)cc2)nc(OC)n1` [Compound 2, N-(2,6-Dimethoxypyrimidin-4-yl)-4-(3-(2-(4-hydroxypiperdin-1-yl)acetyl)-2,5-dimethyl-1H-pyrrol-1-yl)benzenesulfonamide], for which the pIC50 is under 5.30. For `Cc1cc(C(=O)CN2CCC[C@@H]2C(N)=O)c(C)n1-c1ccc(Cl)cc1` [Compound 3, (R)-1-(2-(1-(4-Chlorophenyl)-2,5-dimethyl-1H-pyrrol-3-yl)-2-oxoethyl)pyrrolidine-2-carboxamide], the negative-log IC50 (pIC50) was under 5.30. With `COc1cc(NS(=O)(=O)c2ccc(-n3c(C)cc(C(=O)CN4CCCC4)c3C)cc2)nc(OC)n1` [Compound 4, N-(2,6-Dimethoxypyrimidin-4-yl)-4-(2,5-dimethyl-3-(2-(pyrrolidin-1-yl)acetyl)-1H-pyrrol-1-yl)benzenesulfonamide], the pIC50 is under 5.30. In the case of `Cc1cc(C(=O)CN2CCCCC2)c(C)n1-c1cccc2ccccc12` [Compound 5, 1-(2,5-Dimethyl-1-(naphthalen-1-yl)-1H-pyrrol-3-yl)-2-(piperidin-1-yl)ethanone] it was under 5.30.

Consider `Cc1cc(C(=O)CN2CCCCC2)c(C)n1-c1ccc(O)cc1` [Compound 7, 1-(1-(4-Hydroxyphenyl)-2,5-dimethyl-1H-pyrrol-3-yl)-2-(piperidin-1-yl)ethanone], for which the pIC50 was under 5.30. In the case of `Cc1cc(C(=O)CN2CCCC2)c(C)n1-c1cccc2ccccc12` [Compound 8, 1-(2,5-Dimethyl-1-(naphthalen-1-yl)-1H-pyrrol-3-yl)-2-(pyrrolidin-1-yl)ethanone], the negative logarithm of the IC50 (pIC50) was under 5.30. Take `Cc1cc(C(=O)CN2CCC(O)CC2)c(C)n1-c1cccc2ccccc12` [Compound 9, 1-(2,5-Dimethyl-1-(naphthalen-1-yl)-1H-pyrrol-3-yl)-2-(4-hydroxypiperidin-1-yl)ethanone]: the pIC50 was under 5.30.

In the case of `Cc1cc(C(=O)CN[C@H](C)C2CCCCC2)c(C)n1-c1ccc(Cl)cc1` [Compound 11, (R)-1-(1-(4-Chlorophenyl)-2,5-dimethyl-1H-pyrrol-3-yl)-2-((1-cyclohexylethyl)amino)ethan-one], the pIC50 was under 5.30.

`Cc1cc(C(=O)CN2CCCCC2)c(C)n1-c1ccc(S(C)(=O)=O)cc1` [Compound 12, 1-(2,5-Dimethyl-1-(4-(methylsulfonyl)phenyl)-1H-pyrrol-3-yl)-2-(piperidin-1-yl)ethanone]: the pIC50 is under 5.30. In the case of `Cc1cc(C(=O)CN2CCC(O)CC2)c(C)n1-c1ccc(S(C)(=O)=O)cc1` [Compound 13, 1-(2,5-Dimethyl-1-(4-(methylsulfonyl)phenyl)-1H-pyrrol-3-yl)-2-(4-hydroxypiperidin-1-yl)ethanone], the pIC50 was under 5.30. Regarding `Cc1cc(C(=O)CN2CCCCC2)c(C)n1-c1cc(F)cc(F)c1` [Compound 14, 1-(1-(3,5-Difluorophenyl)-2,5-dimethyl-1H-pyrrol-3-yl)-2-(piperidin-1-yl)ethanone], the pIC50 was under 5.30. In the case of `Cc1cc(C(=O)CN2CCC(O)CC2)c(C)n1-c1cc(F)cc(F)c1` [Compound 15, 1-(1-(3,5-Difluorophenyl)-2,5-dimethyl-1H-pyrrol-3-yl)-2-(4-hydroxypiperidin-1-yl)ethanone] it was under 5.30; in that of `Cc1cc(C(=O)CN2CCCC2)c(C)n1-c1cc(Cl)cc(Cl)c1` [Compound 16, 1-(1-(3,5-Dichlorophenyl)-2,5-dimethyl-1H-pyrrol-3-yl)-2-(pyrrolidin-1-yl)ethanone], under 5.30. In the case of `Cc1cc(C(=O)CN2CCCCC2)c(C)n1-c1cc(Cl)cc(Cl)c1` [Compound 17, 1-(1-(3,5-Dichlorophenyl)-2,5-dimethyl-1H-pyrrol-3-yl)-2-(piperidin-1-yl)ethanone] it was under 5.30; in that of `Cc1cc(C(=O)CN2CCC(O)CC2)c(C)n1-c1cc(Cl)cc(Cl)c1` [Compound 18, 1-(1-(3,5-Dichlorophenyl)-2,5-dimethyl-1H-pyrrol-3-yl)-2-(4-hydroxypiperidin-1-yl)ethanone], under 5.30; in that of `Cc1cc(C(=O)CN2CCCC2)c(C)n1-c1ccc(O)cc1` [Compound 19, 1-(1-(4-Hydroxyphenyl)-2,5-dimethyl-1H-pyrrol-3-yl)-2-(pyrrolidin-1-yl)ethanone], under 5.30. In the case of `Cc1cc(C(=O)CN2CCC(O)CC2)c(C)n1-c1ccc(O)cc1` [Compound 20, 1-(1-(4-Hydroxyphenyl)-2,5-dimethyl-1H-pyrrol-3-yl)-2-(4-hydroxypiperidin-1-yl)ethanone] it was under 5.30. Take `Cc1cc(C(=O)CN2CCC(O)CC2)c(C)n1-c1ccc(C(F)(F)F)cc1` [Compound 21, 1-(2,5-Dimethyl-1-(4-(trifluoromethyl)phenyl)-1H-pyrrol-3-yl)-2-(4-hydroxypiperidin-1-yl)ethanone]: the negative-log IC50 (pIC50) was under 5.30. As for `Cc1cc(C(=O)CN2CCCC2)c(C)n1-c1cc(F)cc(F)c1` [Compound 22, 1-(1-(3,5-Difluorophenyl)-2,5-dimethyl-1H-pyrrol-3-yl)-2-(pyrrolidin-1-yl)ethanone], the pIC50 is under 5.30.

In the case of `Cc1cc(Cl)cc(C)c1-n1ccc(C(=O)CN2CCCC2)c1` [Compound 23, 1-(1-(4-Chloro-2,6-dimethylphenyl)-1H-pyrrol-3-yl)-2-(pyrrolidin-1-yl)ethanone], the pIC50 was under 5.30. Regarding `Cc1cc(Cl)cc(C)c1-n1ccc(C(=O)CN2CCC(O)CC2)c1` [Compound 24, 1-(1-(4-Chloro-2,6-dimethylphenyl)-1H-pyrrol-3-yl)-2-(4-hydroxypiperidin-1-yl)ethanone], the pIC50 was under 5.30. With `Cc1cc(C(=O)CN2CCC(C(=O)O)CC2)c(C)n1-c1ccc(Cl)cc1` [Compound 25, 1-(2-(1-(4-Chlorophenyl)-2,5-dimethyl-1H-pyrrol-3-yl)-2-oxoethyl)piperidine-4-carboxylic acid] the figure was under 5.30; with `Cc1cc(Cl)cc(C)c1-n1ccc(C(=O)CN2CCCCC2)c1` [Compound 26, 1-(1-(4-Chloro-2,6-dimethylphenyl)-1H-pyrrol-3-yl)-2-(piperidin-1-yl)ethanone], under 5.30; with `Cc1cc(Cl)cc(C)c1-n1cccc1C(=O)CN1CCCCC1` [Compound 27, 1-(1-(4-Chloro-2,6-dimethylphenyl)-1H-pyrrol-2-yl)-2-(piperidin-1-yl)ethanone], under 5.30.

In the case of `Cc1cc(Cl)cc(C)c1-n1cccc1C(=O)CN1CCCC1` [Compound 28, 1-(1-(4-Chloro-2,6-dimethylphenyl)-1H-pyrrol-2-yl)-2-(pyrrolidin-1-yl)ethanone], the pIC50 was under 5.30. In the case of `Cc1cc(Cl)cc(C)c1-n1cccc1C(=O)CN1CCC(O)CC1` [Compound 29, 1-(1-(4-Chloro-2,6-dimethylphenyl)-1H-pyrrol-2-yl)-2-(4-hydroxypiperidin-1-yl)ethanone] it was under 5.30. In the case of `Cc1cc(C(=O)CN2CCCCC2)c(C)n1[C@H]1CC[C@@H](F)CC1` [Compound 32, 1-(1-(cis-4-Fluorocyclohexyl)-2,5-dimethyl-1H-pyrrol-3-yl)-2-(piperidin-1-yl)ethanone] it was under 5.30; in that of `Cc1ccc(C(=O)CN2CCCCC2)n1-c1ccc(Cl)cc1` [Compound 33, 1-(1-(4-Chlorophenyl)-5-methyl-1H-pyrrol-2-yl)-2-(piperidin-1-yl)ethanone], under 5.30. In the case of `Cc1cc(C(=O)CN2CCCCC2)c(C)n1C1CCC1` [Compound 35, 1-(1-Cyclobutyl-2,5-dimethyl-1H-pyrrol-3-yl)-2-(piperidin-1-yl)ethanone] it was under 5.30. For `Cc1cc(C(=O)CN2CCC(O)CC2)c(C)n1C1CCC1` [Compound 36, 1-(1-Cyclobutyl-2,5-dimethyl-1H-pyrrol-3-yl)-2-(4-hydroxypiperidin-1-yl)ethanone], the pIC50 is under 5.30. Regarding `Cc1cc(C(=O)CN2CCC(C(=O)OCc3ccccc3)CC2)c(C)n1C1CCC1` [Compound 37, Benzyl 1-(2-(1-cyclobutyl-2,5-dimethyl-1H-pyrrol-3-yl)-2-oxoethyl)piperidine-4-carboxylate], the negative-log IC50 (pIC50) is under 5.30. As to `Cc1cc(C(=O)CC2CCCNC2)c(C)n1-c1ccc(Cl)cc1` (centres unmarked) [Compound 38, 1-(1-(4-Chlorophenyl)-2,5-dimethyl-1H-pyrrol-3-yl)-2-(piperidin-3-yl)ethanone], the pIC50 is under 5.30. In the case of `Cc1cc(C(=O)CC2CCNCC2)c(C)n1-c1ccc(Cl)cc1` [Compound 39, 1-(1-(4-Chlorophenyl)-2,5-dimethyl-1H-pyrrol-3-yl)-2-(piperidin-4-yl)ethanone], the pIC50 is under 5.30. For `Cc1cc(C(=O)CNCC2COC(C)(C)O2)c(C)n1-c1ccc(Cl)cc1` (centres unmarked) [Compound 40, 1-(1-(4-Chlorophenyl)-2,5-dimethyl-1H-pyrrol-3-yl)-2-(((2,2-dimethyl-1,3-dioxolan-4-yl)methyl)amino)ethanone], the pIC50 is under 5.30. With `Cc1cc(C(=O)CNCCOCc2ccccc2)c(C)n1-c1ccc(Cl)cc1` [Compound 41, 2-((2-(Benzyloxy)ethyl)amino)-1-(1-(4-chlorophenyl)-2,5-dimethyl-1H-pyrrol-3-yl)ethanone] the figure was under 5.30. With `Cc1cc(C(=O)CNCCOCc2ccccc2)c(C)n1-c1ccc(C#N)cc1` [Compound 42, 4-(3-(2-((2-(Benzyloxy)ethyl)amino)acetyl)-2,5-dimethyl-1H-pyrrol-1-yl)benzonitrile] the figure was under 5.30; with `Cc1cc(C(=O)CN(CCOCc2ccccc2)CC(=O)c2cc(C)n(-c3ccc(C#N)cc3)c2C)c(C)n1-c1ccc(C#N)cc1` [Compound 43, 4,4′-(3,3′-(2,2′-((2-(Benzyloxy)ethyl)azanediyl)bis(acetyl))bis(2,5-dimethyl-1H-pyrrole-3,1-diyl))dibenzonitrile], under 5.30.
